{
  "source": "patent EP1487791B1",
  "about": "“A NOVEL ANTIFUNGAL MOLECULE 2-(3,4-DIMETHYL-2,5-DIHYDRO-1H-PYRROL-2-YL)- METHYLETHYL PENTANOATE” (priority 2002, dated 2003)",
  "origin": "cited, not measured here",
  "settings": "reported by Zager, R.A., 2000; cited from earlier work",
  "data": [
    {"compound": "C[C@@H]1[C@H](O)[C@@H](C)/C=C/C=C/C=C/C=C/C=C/C=C/C=C/[C@H](O[C@@H]2O[C@H](C)[C@@H](O)[C@H](N)[C@@H]2O)C[C@@H]2O[C@](O)(C[C@@H](O)C[C@@H](O)[C@H](O)CC[C@@H](O)C[C@@H](O)CC(=O)O[C@H]1C)C[C@H](O)[C@H]2C(=O)O", "note": "[amphotericin B]", "values": [
      {"measurement": "CT50", "result": "4.0 to 64.0", "unit": "µg/mL"}
    ]}
  ]
}
